Data as given in US20140005163A1 (NOVARTIS AG, priority 2010, published 2014).
≈ marks a conversion by molar mass, not a printed value.

Key:
[1] = Cellular CaCo2 permeability assay from apical to basal (A-B); format: in vitro ADME; conditions: human, Caco-2, read-out: Pe A-B (permeability)
From the text: The permeability in 10^−6 cm/s of compounds of formula (I) have been confirmed for selected example using a cellular CaCo2 permeability assay from apical to basal (A-B): […]

Solubility at pH 6.8 = format: physicochemical; conditions: pH 6.8, aqueous buffer, thermodynamic from solid; read-out: solubility
In short: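 Following the procedure of Zhou et al. (2007), compound solubility was determined at pH 6.8.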

[2] = test system: PKB Ser473 phosphorylation in Rat1-myr-HA-p110 delta cells; assay: Reverse protein array assay, PKB Ser473 phosphorylation in Rat1-myr-p110 delta cells; format: cell-based; conditions: read-out: p-PKB IC50
In short: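 After at least 20 h of culture, the p110 isoform-transfected Rat1 lines receive compound in an 8-step dilution series, keeping DMSO at 0.2%, for 30 minutes. Cells are then lysed and lysates arrayed on chips for fluorescence detection of Ser473-phosphorylated PKB.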

PI3K gamma = molecular target: T1, PI3K gamma (Homo sapiens, UniProt P48736); assay: PI3K gamma kinase assay (Kinase-Glo luminescence); format: biochemical
T1 construct: His tag (C); made in house; host or cells: baculovirus (pVL1393); Tn5 or TiniPro insect cells; construct from Roger Williams lab, MRC LMB
In short: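 PI3Kγ (150 nM) reaction run 120 min at room temperature with phosphatidylinositol substrate (10 μg/mL) and ATP (1 μM) in Tris pH 7.5 buffer containing MgCl2, NaCl, CHAPS and DTT. Remaining ATP detected by Kinase-Glo luminescence; 8 concentrations per compound, IC50 from 4-parameter curve fitting.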

T1 sequence (P48736 144-1102 limits assumed): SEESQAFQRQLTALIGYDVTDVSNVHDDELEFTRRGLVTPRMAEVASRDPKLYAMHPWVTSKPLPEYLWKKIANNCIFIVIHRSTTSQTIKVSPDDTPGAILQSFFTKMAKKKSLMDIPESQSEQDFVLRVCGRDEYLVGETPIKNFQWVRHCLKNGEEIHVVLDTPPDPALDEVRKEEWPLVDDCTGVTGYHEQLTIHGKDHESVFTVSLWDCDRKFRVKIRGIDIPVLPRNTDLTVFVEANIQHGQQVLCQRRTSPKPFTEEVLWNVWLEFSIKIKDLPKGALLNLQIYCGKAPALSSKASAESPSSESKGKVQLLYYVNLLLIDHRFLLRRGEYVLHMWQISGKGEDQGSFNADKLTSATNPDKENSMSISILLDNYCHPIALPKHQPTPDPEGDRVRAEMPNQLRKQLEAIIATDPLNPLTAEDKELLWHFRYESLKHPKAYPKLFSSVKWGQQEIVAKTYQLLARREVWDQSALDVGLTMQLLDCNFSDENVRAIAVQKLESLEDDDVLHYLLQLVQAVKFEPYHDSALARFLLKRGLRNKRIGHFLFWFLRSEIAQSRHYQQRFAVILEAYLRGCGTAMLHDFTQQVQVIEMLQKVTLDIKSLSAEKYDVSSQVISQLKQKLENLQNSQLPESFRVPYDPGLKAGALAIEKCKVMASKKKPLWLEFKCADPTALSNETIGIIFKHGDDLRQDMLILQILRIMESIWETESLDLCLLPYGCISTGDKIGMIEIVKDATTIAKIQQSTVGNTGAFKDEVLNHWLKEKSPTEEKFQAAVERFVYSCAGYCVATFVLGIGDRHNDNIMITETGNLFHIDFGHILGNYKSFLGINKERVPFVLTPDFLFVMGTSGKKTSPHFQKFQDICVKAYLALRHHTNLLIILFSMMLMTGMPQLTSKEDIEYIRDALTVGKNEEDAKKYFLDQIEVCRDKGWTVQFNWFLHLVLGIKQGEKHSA

Row | Papp A→B [1] [×10⁻⁶ cm/s] | solubility (Solubility at pH 6.8) [µg/mL] | IC50 [2] [nM] | IC50 (PI3K gamma) [nM] | Compound
1 | 16.1 | 7 (≈ 16.9 µM) | 38 | 292 | Cc1nn(C)cc1-n1c(=O)n(C)c2cnc3ccc(-c4ccc(N(C)C)nc4)cc3c21 [Example 4.5, 8-(6-Dimethylamino-pyridin-3-yl)-1-(1,3-dimethyl-1H-pyrazol-4-yl)-3-methyl-1,3-dihydro-imidazo[4,5-c]quinolin-2-one]
2 | 21 | 104 (≈ 243 µM) | 927 | 309 | CCOc1ccc(-c2ccc3ncc4c(c3c2)n(-c2c(C)nn(C)c2C)c(=O)n4C)cn1 [Example 3.3, 8-(6-Ethoxy-pyridin-3-yl)-3-methyl-1-(1,3,5-trimethyl-1H-pyrazol-4-yl)-1,3-dihydro-imidazo[4,5-c]quinolin-2-one]
